“Also recorded” adds a separate entry of the source. Where a name gives a salt, the structure may show the parent alone.
Experiments:
[1] = test system: Fabry disease vascular endothelial cells; assay: Tube formation experiment with ROCK inhibitors; type: cell-based, human; conditions: 5 µM
Method: [Table 1] ROCK inhibitors used in the first experiment
Second experiment: To confirm whether decreased tube formation in vascular endothelial cells derived from Fabry disease-induced pluripotent stem cells was rescued by treatment with 7 types of ROCK inhibitors (netarsudil, ripasudil, sovesudil, AT13148, AR13503, VX-210, and […]), a tube formation experiment was conducted (Table 2). [Table 2] Types of ROCK inhibitors used in the second experiment
Matrigel was applied to a 96-well plate which was then stored in a 5% CO2 incubator a 37°C for one day. The next day, each ROCK inhibitor was added to each well at various concentrations (5 µM, 1 µM, 0.5 µM, 0.1 µM, 0.05 µM, and 0.01 µM) together with […] VEGF in EGM-2 media.
10,000 vascular endothelial cells per well were applied onto the solidified Matrigel, and after one day, each well was photographed under a microscope. Then, the total tube length was analyzed using Image J to compare the increase and decrease in tube formation.

Rock1 = Rock1 (Homo sapiens, UniProt Q13464); conditions: cited from earlier work
Chain of Rock1 (Q13464 whole entry, species assumed): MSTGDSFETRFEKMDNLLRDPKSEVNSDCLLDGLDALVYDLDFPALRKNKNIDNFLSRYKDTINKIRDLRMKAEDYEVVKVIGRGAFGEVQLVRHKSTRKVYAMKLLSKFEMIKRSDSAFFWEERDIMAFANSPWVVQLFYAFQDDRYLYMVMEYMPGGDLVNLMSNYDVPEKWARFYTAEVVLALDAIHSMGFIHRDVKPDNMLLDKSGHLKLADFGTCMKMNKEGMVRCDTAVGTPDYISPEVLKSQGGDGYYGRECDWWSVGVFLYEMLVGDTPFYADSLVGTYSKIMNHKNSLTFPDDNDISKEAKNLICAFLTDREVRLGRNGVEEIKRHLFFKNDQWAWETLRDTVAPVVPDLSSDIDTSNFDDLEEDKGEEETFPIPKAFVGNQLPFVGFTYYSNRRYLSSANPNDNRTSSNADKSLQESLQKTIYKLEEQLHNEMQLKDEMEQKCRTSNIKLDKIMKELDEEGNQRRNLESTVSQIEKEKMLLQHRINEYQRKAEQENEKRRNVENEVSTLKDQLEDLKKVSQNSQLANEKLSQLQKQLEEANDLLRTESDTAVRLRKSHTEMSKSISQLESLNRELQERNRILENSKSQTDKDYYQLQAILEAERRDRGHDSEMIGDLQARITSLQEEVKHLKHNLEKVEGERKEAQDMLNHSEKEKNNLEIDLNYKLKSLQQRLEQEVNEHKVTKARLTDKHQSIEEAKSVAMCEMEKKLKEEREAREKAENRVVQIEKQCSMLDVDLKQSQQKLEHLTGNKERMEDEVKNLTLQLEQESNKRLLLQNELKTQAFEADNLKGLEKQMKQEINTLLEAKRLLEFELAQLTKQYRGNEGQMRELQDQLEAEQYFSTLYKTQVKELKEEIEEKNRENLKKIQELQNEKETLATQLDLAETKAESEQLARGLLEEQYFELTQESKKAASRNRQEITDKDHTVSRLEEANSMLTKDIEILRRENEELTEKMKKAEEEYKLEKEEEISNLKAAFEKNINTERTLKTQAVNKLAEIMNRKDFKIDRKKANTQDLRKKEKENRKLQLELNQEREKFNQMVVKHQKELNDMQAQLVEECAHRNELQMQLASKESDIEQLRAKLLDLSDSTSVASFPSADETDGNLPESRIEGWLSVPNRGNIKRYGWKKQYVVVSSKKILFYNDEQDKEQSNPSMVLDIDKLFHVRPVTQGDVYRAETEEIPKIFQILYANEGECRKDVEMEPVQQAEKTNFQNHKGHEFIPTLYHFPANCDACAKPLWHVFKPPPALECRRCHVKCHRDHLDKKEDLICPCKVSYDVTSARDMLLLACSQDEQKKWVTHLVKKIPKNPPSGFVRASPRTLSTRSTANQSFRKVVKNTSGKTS

Rock2 = Rock2 (Homo sapiens, UniProt O75116); conditions: cited from earlier work
Chain of Rock2 (O75116 whole entry, species assumed): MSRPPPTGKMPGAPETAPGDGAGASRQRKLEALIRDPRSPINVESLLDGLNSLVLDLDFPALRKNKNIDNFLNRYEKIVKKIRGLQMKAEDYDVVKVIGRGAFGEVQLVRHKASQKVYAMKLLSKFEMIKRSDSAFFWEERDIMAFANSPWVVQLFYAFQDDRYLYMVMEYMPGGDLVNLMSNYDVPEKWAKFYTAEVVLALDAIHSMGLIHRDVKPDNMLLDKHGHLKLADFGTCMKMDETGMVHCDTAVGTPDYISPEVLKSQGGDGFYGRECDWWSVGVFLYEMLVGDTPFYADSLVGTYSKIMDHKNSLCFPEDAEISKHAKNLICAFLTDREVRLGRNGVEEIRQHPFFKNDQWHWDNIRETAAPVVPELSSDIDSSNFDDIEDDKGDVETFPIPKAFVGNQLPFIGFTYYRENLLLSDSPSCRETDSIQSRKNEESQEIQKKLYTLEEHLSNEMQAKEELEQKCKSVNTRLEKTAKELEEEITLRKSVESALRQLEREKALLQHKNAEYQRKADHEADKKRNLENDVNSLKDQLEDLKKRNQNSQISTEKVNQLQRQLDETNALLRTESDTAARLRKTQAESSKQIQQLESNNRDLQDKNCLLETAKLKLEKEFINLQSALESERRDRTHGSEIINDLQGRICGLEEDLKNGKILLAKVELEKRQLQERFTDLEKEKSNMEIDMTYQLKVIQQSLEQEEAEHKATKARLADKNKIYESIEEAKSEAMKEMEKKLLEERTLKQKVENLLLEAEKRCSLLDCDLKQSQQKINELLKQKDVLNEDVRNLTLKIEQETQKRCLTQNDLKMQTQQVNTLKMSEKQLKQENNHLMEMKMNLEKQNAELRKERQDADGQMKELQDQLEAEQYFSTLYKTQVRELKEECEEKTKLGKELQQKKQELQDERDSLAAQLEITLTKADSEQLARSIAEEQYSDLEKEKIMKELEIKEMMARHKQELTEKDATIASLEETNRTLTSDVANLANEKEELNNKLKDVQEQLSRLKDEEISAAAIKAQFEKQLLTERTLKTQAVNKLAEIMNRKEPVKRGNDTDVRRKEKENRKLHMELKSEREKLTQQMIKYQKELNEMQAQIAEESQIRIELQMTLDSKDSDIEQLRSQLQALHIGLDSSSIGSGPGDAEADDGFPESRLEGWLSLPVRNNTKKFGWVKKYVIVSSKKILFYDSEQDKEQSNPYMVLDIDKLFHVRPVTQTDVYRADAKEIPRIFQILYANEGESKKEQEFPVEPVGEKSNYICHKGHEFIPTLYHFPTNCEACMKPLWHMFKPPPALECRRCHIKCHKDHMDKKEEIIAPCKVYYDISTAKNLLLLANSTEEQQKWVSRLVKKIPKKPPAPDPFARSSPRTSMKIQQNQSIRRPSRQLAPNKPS

FD-VECs [2] = assay: Tube-like structure formation assay of FD-VECs; type: cell-based, human; conditions: for tube formation ability: 0.5, 1, and 5 µM, versus DMSO control; for optimal concentration: based on tube formation of FD-VECs; for tube formation ability of VECs derived from FD-iPSC lines with distinct GLA mutations: fasudil at 5 µM
Method: FD-iPSC lines that were generated from fibroblasts of three FD patients with a GLA variant were used. A wild-type (WT) iPSC line derived from foreskin fibroblasts and a FD1 isogenic iPSC line were used as controls. Human iPSCs (hiPSCs) were maintained in mTeSR1 medium ([…] Technologies, Vancouver, Canada) on culture plates precoated with Corning Matrigel® hESC-Qualified Matrix. The cells were maintained at 37°C in a 5% CO2 incubator. After 7 days of culture, hiPSC colonies were split at a 1:50 ratio using accutase solution (eBioscience, San Diego, CA, USA) and incubated under the same culture conditions for expansion.
Human iPSCs were differentiated into VECs as described previously, with further optimization. Briefly, hiPSCs were transferred to dishes coated with Matrigel® (BD Biosciences, Franklin Lakes, NJ, USA) and cultured for 2 days in mTESR1 medium ([…] Technologies) at 37°C and 5% CO2. Subsequently, the cells were cultured for a further 2 days in VEC medium (RPMI (HyClone, Logan, MI, USA), 1% B27 (Invitrogen, Carlsbad, CA, USA), and penicillin/streptomycin (Invitrogen)) supplemented with 50 ng/mL Activin A (PeproTech, Rocky Hill, NJ, USA) and 20 ng/mL BMP4 (PeproTech), and 3 µM CHIR990921 (Sigma, St. Louis, MO) at 37°C and 5% CO2. Next, the cells were cultured for 3 days in VEC medium containing 50 ng/mL VEGF-A (PeproTech) and 50 ng/mL bFGF, at 37°C and 5% CO2. To differentiate the vascular progenitors into VECs, CD31^+ cells were sorted from the differentiated cells by MACS using CD31^+ Dynabeads (Thermo Fisher Scientific, Waltham, MA, USA). The CD31^+ cells were transferred to gelatin-coated plates and incubated for 3 days in EGM-2 medium (Lonza, Basel, Switzerland) supplemented with 100 ng/mL VEGF-A and 50 ng/mL bFGF, at 37°C and 5% CO2. The culture medium was changed daily. Finally, the vascular progenitors were cultured in EGM-2 medium without growth factors for 4 days with daily medium change.
To screen for clinical compounds that could rescue FD-VEC dysfunction, VECs were seeded onto gelatin-coated 96-well plates (SPL Life Sciences, Pocheon, Korea) at a density of 3 × 10^3 cells/cm^2 and maintained in EGM-2 medium without growth factors for 24 hours. […] Subsequently, it was examined whether FD-VECs treated with each selected compound could form tube-like structures on Matrigel®-coated plates. The tube-like structure forming assay was repeated at least three times using different concentrations of each selected compound (0.5, 1, and 5 µM).
FD-VECs were dissociated after treatment with Accutase (eBioscience) at 37°C for 5 min. Dissociated cells (1 × 10^4) were transferred to Matrigel® matrix (BD Biosciences) in EGM-2 medium supplemented with 100 ng/mL VEGF-A, and then incubated at 37°C and 5% CO2 for 24 hours. Images of the vascular tube-like structures were taken using an inverted microscope (Olympus, Tokyo, Japan). Total tube lengths were measured using ImageJ software, which was freely provided by the […], and its Angiogenesis Analyzer plugin (Carpentier, 2012).

[3] = test system: p-SMAD2, SMAD2, TSP1, KDR, eNOS; assay: Western blot analysis of p-SMAD2, TSP1, KDR and eNOS in FD-VECs; type: cell-based, human; conditions: compared to non-treated FD-VECs
EndMT of FD-VECs = assay: EndMT-associated factors in FD-VECs (Western blot, immunostaining); type: cell-based, human; conditions: for levels of mesenchymal-related markers (COL1A1, ACTA2, SNAI1, and TWIST) / protein level of CD31: Western blot; for fluorescence intensities of EndMT-related factors (ACTA2, SNAI1, COL1A1): immunostaining
Description: Hyperactive SMAD2 signaling induces EndMT in VECs, thereby reducing angiogenic functionality. […] Before drug treatment, the present inventors performed bulk RNA sequencing of FD-VECs and FD(c)-VECs to examine the mechanism underlying the defective vasculopathy of FD-VECs.

FD-VECs [4] = assay: ROS fluorescence intensity in FD-VECs; type: cell-based, human
FD-VECs [5] = assay: Extracellular flux analysis of oxygen consumption rate (OCR); type: cell-based, human
[6] = test system: FD mice (Gla^-/-/TSP1^Tg); assay: Echocardiography of FD mice after oral administration; type: in vivo; conditions: 10 or 30 mg/kg/day for 6 months
Description: Therefore, the present inventors hypothesized that Gla^-/- mice expressing human TSP1 (Gla^-/-/TSP1^Tg; hereinafter referred to as FD mice) might be an effective animal model for studying FD-related vasculopathy. […] LVH is known to occur in up to half of males and one-third of females in FD patients (Kampmann C, Linhart A, Baehner F, Palecek T, Wiethoff CM, Miebach E, Whybra C, Gal A, Bultas J, Beck M (2008) Onset and progression of the Anderson-Fabry disease related cardiomyopathy. International Journal of Cardiology 130: 367-73). Thus, the present inventors investigated the cardiac functionality in each mouse group via echocardiography.
To this end, FD-mice (Gla^-/-/TSP1^Tg) were produced by crossing transgenic mice expressing human TSP1 with Gla^-/- mice. The produced mice were then orally administered lomerizine (10 or 30 mg/kg/day) for 6 months (FIG. 18A).

[7] = test system: FD mice (Gla^-/-/TSP1^Tg); assay: Sweat secretion analysis in FD mice; type: in vivo; conditions: oral, 10 or 30 mg/kg/day for 6 months
[8] = test system: FD mice (Gla^-/-/TSP1^Tg); assay: Heat tolerance test (paw withdrawal latency) in FD mice; type: in vivo; conditions: oral, 10 or 30 mg/kg/day for 6 months
[9] = test system: FD mice (Gla^-/-/TSP1^Tg); assay: Immunohistochemistry and Western blot of renal tissues of FD mice; type: in vivo; conditions: oral administration; for protein levels of fibrotic and inflammatory markers in renal tissues: Western blot; for CD31+ACTA2+ cells in renal tissues / expression levels of F4/80 and LCN2 in renal tissues / expression of COL1A1 in renal tissues: immunohistochemistry
[10] = test system: Fabry disease mice (Gla^-/-); assay: Echocardiography of Gla^-/- mice after co-administration; type: in vivo; conditions: fasudil 30 mg/kg daily oral; enzyme 1 mg/kg i.v. once a week; 6 months
[11] = test system: Fabry disease mice (Gla^-/-); assay: Sweat secretion of Gla^-/- mice after co-administration; type: in vivo; conditions: fasudil 30 mg/kg daily oral; enzyme 1 mg/kg i.v. once a week; 6 months
[12] = test system: Fabry disease mice (Gla^-/-); assay: Hot plate test (55°C) of Gla^-/- mice after co-administration; type: in vivo; conditions: hot plate 55°C; fasudil 30 mg/kg daily oral; enzyme 1 mg/kg i.v. once a week; 6 months
Method: Many Fabry disease patients suffer from peripheral neuropathic pain, and one way to indirectly assess the pain in laboratory animals is to measure the time it takes for the hind limbs to jump on a hot plate at 55°C.

[13] = test system: Fabry disease mice (Gla^-/-); assay: Kidney tissue analysis of Gla^-/- mice after co-administration; type: in vivo; conditions: fasudil 30 mg/kg daily oral; enzyme 1 mg/kg i.v. once a week; 6 months

CCCOC(=O)c1cccc(-c2cc(C(=O)Nc3ccncc3F)ccc2CN)c1 [AMA-0076, Sovesudil]
tube formation ability of Fabry disease vascular endothelial cells [1]: increased the tube formation ability | IC50 (Rock1): 3.7 nM | IC50 (Rock2): 23 nM

NC[C@@H](C(=O)Nc1ccc2cnccc2c1)c1ccc(CO)cc1 [AR-13503]
tube formation ability of Fabry disease vascular endothelial cells [1]: increased the tube formation ability | IC50 (Rock2): 4.2 nM

NC[C@@](O)(c1ccc(Cl)cc1)c1ccc(-c2cn[nH]c2)cc1 [AT-13148]
tube formation ability of Fabry disease vascular endothelial cells [1]: increased the tube formation ability | IC50 (Rock1): 6 nM | IC50 (Rock2): 4 nM

NC(=O)c1ccc(-c2nc(-c3ccc4c(c3)OCCO4)c(-c3ccccn3)[nH]2)cc1 [D-4476]
tube formation ability (FD-VECs [2]): relatively higher tube formation ability

CC1=C(C(=O)Nc2cc3cn[nH]c3cc2F)C(c2ccc(C(F)(F)F)cc2)CC(=O)N1 (centres unmarked) [GSK429286A]
tube formation ability of Fabry disease vascular endothelial cells [1]: effective in improving the impaired tube formation ability

C[C@H]1CNCCCN1S(=O)(=O)c1cccc2cncc(F)c12 [Ripasudil hydrochloride hydrate]
tube formation ability of Fabry disease vascular endothelial cells [1]: increased the tube formation ability

NC(=O)c1ccc(-c2nc(-c3ccc4c(c3)OCO4)c(-c3ccccn3)[nH]2)cc1 [SB431542]
tube formation ability of Fabry disease vascular endothelial cells [1]: increased tube formation ability

O=C(Nc1ccncc1)c1cc([N+](=O)[O-])ccc1Cl [T0070907]
tube formation ability (FD-VECs [2]): relatively higher tube formation ability

C[C@@H](N)[C@H]1CC[C@H](C(=O)Nc2ccncc2)CC1 [Y27632]
tube formation ability of Fabry disease vascular endothelial cells [1]: effective in improving the impaired tube formation ability

C[C@@H](N)c1ccc(C(=O)Nc2ccnc3[nH]ccc23)cc1 [Y39983]
tube formation ability of Fabry disease vascular endothelial cells [1]: effective in improving the impaired tube formation ability

CCOC(CN1CCN(CC(C)C(=O)c2ccccc2)CC1)c1ccccc1 (centres unmarked) [eprazinone]
tube formation ability (FD-VECs [2]): relatively higher tube formation ability

O=S(=O)(c1cccc2cnccc12)N1CCCNCC1 [fasudil]
tube length of FD-VECs (FD-VECs [2]; 5 µM, compared to the untreated group): significantly increased | tube formation ability (FD-VECs [2]): relatively higher tube formation ability; also recorded: most effective | optimal concentration (FD-VECs [2]): 5 µM | tube formation ability of VECs derived from FD-iPSC lines with distinct GLA mutations (FD-VECs [2]): enhanced | levels of KDR and eNOS [3]: increased | levels of p-SMAD2 and TSP1 [3]: reduced | levels of mesenchymal-related markers (COL1A1, ACTA2, SNAI1, and TWIST) (EndMT of FD-VECs): reduced | protein level of CD31 (EndMT of FD-VECs): increased | fluorescence intensities of EndMT-related factors (ACTA2, SNAI1, COL1A1) (EndMT of FD-VECs): reduced | level of ROS (FD-VECs [4]): reduced the level of ROS to that seen in WT-VECs and FD(c)-VECs | basal respiration, ATP production, or spare capacity (FD-VECs [5]): did not alter | maximal respiration (FD-VECs [5]): partially reduced | LV mass/BW [6]: significantly reduced | cardiac ejection fraction, fractional shortening, and cardiac output [6]: enhanced | anhidrosis (number of sweat spots) [7]: significantly alleviated | heat insensitivity (paw withdrawal latency) [8]: significantly alleviated | protein levels of fibrotic and inflammatory markers in renal tissues [9]: confirmed by Western blot analysis | CD31+ACTA2+ cells in renal tissues [9]: reduced | expression levels of F4/80 and LCN2 in renal tissues [9]: reduced | expression of COL1A1 in renal tissues [9]: downregulated | cardiac function [10]: improvement in cardiac function | left ventricular hypertrophy [10]: significant reduction | sweating [11]: reduced | latency (time for hind limbs to jump on hot plate) [12]: slight decrease in latency | expression of fibrosis-related marker (COL1A1) and inflammation markers (LCN2 and F4/80) in kidney tissues [13]: reduced

COc1ccc(CN2CCN(C(c3ccc(F)cc3)c3ccc(F)cc3)CC2)c(OC)c1OC [lomerizine]
tube formation ability (FD-VECs [2]): relatively higher tube formation ability | optimal concentration (FD-VECs [2]): 1 µM | tube formation ability of VECs derived from FD-iPSC lines with distinct GLA mutations (FD-VECs [2]): enhanced | total tube length of FD-VECs (FD-VECs [2]; tube formation assay, versus untreated FD-VECs): significantly increased | levels of KDR and eNOS [3]: increased | levels of p-SMAD2 and TSP1 [3]: reduced | levels of mesenchymal-related markers (COL1A1, ACTA2, SNAI1, and TWIST) (EndMT of FD-VECs): reduced | protein level of CD31 (EndMT of FD-VECs): increased | fluorescence intensities of EndMT-related factors (ACTA2, SNAI1, COL1A1) (EndMT of FD-VECs): reduced | level of ROS (FD-VECs [4]): reduced the excess ROS produced in FD-VECs to the same level as that in WT- and FD(c)-VECs | maximal respiration (FD-VECs [5]): slight decrease | LV mass/BW [6]: reduced | cardiac ejection fraction, fractional shortening, and cardiac output [6]: significant improvements | anhidrosis (number of sweat spots) [7]: rescued this phenotype | heat insensitivity (paw withdrawal latency) [8]: rescued this phenotype | protein levels of fibrotic and inflammatory markers in renal tissues [9]: reduced | CD31+ACTA2+ cells in renal tissues [9]: reduced this increase | expression levels of F4/80 and LCN2 in renal tissues [9]: reduced | expression of COL1A1 in renal tissues [9]: downregulated

Cc1c(Cl)cccc1Nc1ccccc1C(=O)O [tolfenamic acid]
tube formation ability (FD-VECs [2]): relatively higher tube formation ability

Netarsudil mesylate
tube formation ability of Fabry disease vascular endothelial cells [1]: increased the tube formation ability

Reference: patent publication EP4631504A1, “COMPOSITION FOR PREVENTION OR TREATMENT OF FABRY'S DISEASE” (Korea Advanced Institute of Science and Technology, priority 2022, dated 2024)
